Source: patent publication US20060046009A1, “Optical disk” (TDK Corporation, priority 2004, published 2006)

Assay: Solubility of the cyanine dyes in 2,2,3,3-tetrafluoro-1-propanol
Type: physicochemical
Conditions: in 2,2,3,3-tetrafluoro-1-propanol (TFP)
Excerpt: FIGS. 1 and 2 are schematic fragmentary sectional views showing the vicinities of grooves in the optical disks according to Example 1 (counter ion: PF6^−) and Comparative Example 2 (counter ion: I^−), respectively. […] Thus, the optical disk in Example 1 has more uniform dye

Solubility in TFP [mg/mL] | SMILES
15 | CN1/C(=C/C=C/C2=[N+](C)c3c(ccc4ccccc34)C2(C)C)C(C)(C)c2cc(Cl)ccc21 [Example 1]
8 | CN1/C(=C/C=C/C2=[N+](C)c3ccc4ccccc4c3C2(C)Cc2ccccc2)C(C)(C)c2c1ccc1ccccc21 (centres unmarked) [Example 2]
